According to PubChem BioAssay AID2060626 (Molecular Pharmacology Branch, DTP, NCI, 2025):

System: 168753-222-R-J1-PDC complex spheroid viability
Experiment: Anticancer human tumor 168753-222-R-J1-PDC patient-derived bladder carcinoma cell line growth inhibition [CLK]
Conditions: for IC50: curve of first compound; for viability, T/C: stronger effect = lower value
Summary of the method: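 Patient-derived tumor cells grown as complex spheroids with HUVEC endothelial cells and mesenchymal stem cells, treated with drug combinations. Concentrations descend in half-log steps from near clinical Cmax, or from 10 microM if Cmax unknown.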

[1] = second compound 0.0316 µM, first compound 0.00949 µM
[2] = second compound 0.0316 µM, first compound 0.03 µM
[3] = second compound 0.0316 µM, first compound 0.0949 µM
[4] = second compound 0.0316 µM, first compound 0.3 µM
[5] = second compound 0.1 µM, first compound 0.00949 µM
[6] = second compound 0.1 µM, first compound 0.03 µM
[7] = second compound 0.1 µM, first compound 0.0949 µM
[8] = second compound 0.1 µM, first compound 0.3 µM
[9] = second compound 0.316 µM, first compound 0.00949 µM
[10] = second compound 0.316 µM, first compound 0.03 µM
[11] = second compound 0.316 µM, first compound 0.0949 µM
[12] = second compound 0.316 µM, first compound 0.3 µM
[13] = second compound 1 µM, first compound 0.00949 µM
[14] = second compound 1 µM, first compound 0.03 µM
[15] = second compound 1 µM, first compound 0.0949 µM
[16] = second compound 1 µM, first compound 0.3 µM
[17] = second compound 3.16 µM, first compound 0.00949 µM
[18] = second compound 3.16 µM, first compound 0.03 µM
[19] = second compound 3.16 µM, first compound 0.0949 µM
[20] = second compound 3.16 µM, first compound 0.3 µM
[21] = second compound 10 µM, first compound 0.00949 µM
[22] = second compound 10 µM, first compound 0.03 µM
[23] = second compound 10 µM, first compound 0.0949 µM
[24] = second compound 10 µM, first compound 0.3 µM
[25] = second compound 0.0316 µM, first compound 0.0316 µM
[26] = second compound 0.0316 µM, first compound 0.1 µM
[27] = second compound 0.0316 µM, first compound 0.316 µM
[28] = second compound 0.0316 µM, first compound 1 µM
[29] = second compound 0.0316 µM, first compound 3.16 µM
[30] = second compound 0.0316 µM, first compound 10 µM
[31] = second compound 0.1 µM, first compound 0.0316 µM
[32] = second compound 0.1 µM, first compound 0.1 µM
[33] = second compound 0.1 µM, first compound 0.316 µM
[34] = second compound 0.1 µM, first compound 1 µM
[35] = second compound 0.1 µM, first compound 3.16 µM
[36] = second compound 0.1 µM, first compound 10 µM
[37] = second compound 0.316 µM, first compound 0.0316 µM
[38] = second compound 0.316 µM, first compound 0.1 µM
[39] = second compound 0.316 µM, first compound 0.316 µM
[40] = second compound 0.316 µM, first compound 1 µM
[41] = second compound 0.316 µM, first compound 3.16 µM
[42] = second compound 0.316 µM, first compound 10 µM
[43] = second compound 1 µM, first compound 0.0316 µM
[44] = second compound 1 µM, first compound 0.1 µM
[45] = second compound 1 µM, first compound 0.316 µM
[46] = second compound 1 µM, first compound 1 µM
[47] = second compound 1 µM, first compound 3.16 µM
[48] = second compound 1 µM, first compound 10 µM
[49] = second compound 3.16 µM, first compound 0.0316 µM
[50] = second compound 3.16 µM, first compound 0.1 µM
[51] = second compound 3.16 µM, first compound 0.316 µM
[52] = second compound 3.16 µM, first compound 1 µM
[53] = second compound 3.16 µM, first compound 3.16 µM
[54] = second compound 3.16 µM, first compound 10 µM
[55] = second compound 10 µM, first compound 0.0316 µM
[56] = second compound 10 µM, first compound 0.1 µM
[57] = second compound 10 µM, first compound 0.316 µM
[58] = second compound 10 µM, first compound 1 µM
[59] = second compound 10 µM, first compound 3.16 µM
[60] = second compound 10 µM, first compound 10 µM
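Note: viability measured after seven days of drug exposure.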
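Throughout, for viability, T/C: luminescence signal used as surrogate for viable cell amount; 100% = DMSO vehicle control wells.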

## CC(C)CC(NC(=O)C(Cc1ccccc1)NC(=O)c1cnccn1)B(O)O (stereo not drawn) + CNC(=O)c1ccc(Nc2nc(OC3CCCC3)c3c(-c4ccc5nc(C)oc5c4)c[nH]c3n2)c(OC)c1
Second compound 0.0316 µM
  IC50: 2.09 nM
Second compound 0.1 µM
  IC50: 2.31 nM
Second compound 0.316 µM
  IC50: 1.8 nM
Second compound 1 µM
  IC50: < 0.949 nM
Second compound 3.16 µM
  IC50: < 0.949 nM
Second compound 10 µM
  IC50: < 0.949 nM
Second compound 0.0316 µM, first compound 0.000949 µM
  viability, T/C: 98.6%
Second compound 0.0316 µM, first compound 0.003 µM
  viability, T/C: 27.7%
[1]
  viability, T/C: 3.13%
[2]
  viability, T/C: 0.6%
[3]
  viability, T/C: 1.66%
[4]
  viability, T/C: 0.44%
Second compound 0.1 µM, first compound 0.000949 µM
  viability, T/C: 89.3%
Second compound 0.1 µM, first compound 0.003 µM
  viability, T/C: 38.4%
[5]
  viability, T/C: 1.22%
[6]
  viability, T/C: 0.27%
[7]
  viability, T/C: 0.53%
[8]
  viability, T/C: 2.04%
Second compound 0.316 µM, first compound 0.000949 µM
  viability, T/C: 76.4%
Second compound 0.316 µM, first compound 0.003 µM
  viability, T/C: 29%
[9]
  viability, T/C: 0.8%
[10]
  viability, T/C: 0.28%
[11]
  viability, T/C: 1.74%
[12]
  viability, T/C: 0.24%
Second compound 1 µM, first compound 0.000949 µM
  viability, T/C: 38.4%
Second compound 1 µM, first compound 0.003 µM
  viability, T/C: 26.5%
[13]
  viability, T/C: 2.8%
[14]
  viability, T/C: 0.43%
[15]
  viability, T/C: 2.22%
[16]
  viability, T/C: 1.45%
Second compound 3.16 µM, first compound 0.000949 µM
  viability, T/C: 21.6%
Second compound 3.16 µM, first compound 0.003 µM
  viability, T/C: 20.2%
[17]
  viability, T/C: 0.44%
[18]
  viability, T/C: 0.17%
[19]
  viability, T/C: 0.2%
[20]
  viability, T/C: 0.35%
Second compound 10 µM, first compound 0.000949 µM
  viability, T/C: 21%
Second compound 10 µM, first compound 0.003 µM
  viability, T/C: 18.4%
[21]
  viability, T/C: 0.38%
[22]
  viability, T/C: 1.09%
[23]
  viability, T/C: 1.85%
[24]
  viability, T/C: 0.25%

## CC1(C)CCC(CN2CCN(c3ccc(C(=O)NS(=O)(=O)c4ccc(NCC5CCOCC5)c([N+](=O)[O-])c4)c(Oc4cnc5[nH]ccc5c4)c3)CC2)=C(c2ccc(Cl)cc2)C1 + CNC(=O)c1ccc(Nc2nc(OC3CCCC3)c3c(-c4ccc5nc(C)oc5c4)c[nH]c3n2)c(OC)c1
Second compound 0.0316 µM
  IC50: 6520 nM
Second compound 0.1 µM
  IC50: 5810 nM
Second compound 0.316 µM
  IC50: 4580 nM
Second compound 1 µM
  IC50: 45.8 nM
Second compound 3.16 µM
  IC50: < 31.6 nM
Second compound 10 µM
  IC50: < 31.6 nM
[25]
  viability, T/C: 109%
[26]
  viability, T/C: 112%
[27]
  viability, T/C: 104%
[28]
  viability, T/C: 109%
[29]
  viability, T/C: 97%
[30]
  viability, T/C: 22%
[31]
  viability, T/C: 99.7%
[32]
  viability, T/C: 99.5%
[33]
  viability, T/C: 101%
[34]
  viability, T/C: 95.7%
[35]
  viability, T/C: 90.2%
[36]
  viability, T/C: 14%
[37]
  viability, T/C: 75.2%
[38]
  viability, T/C: 77%
[39]
  viability, T/C: 79.6%
[40]
  viability, T/C: 80.3%
[41]
  viability, T/C: 66.7%
[42]
  viability, T/C: 12.6%
[43]
  viability, T/C: 50.4%
[44]
  viability, T/C: 49.5%
[45]
  viability, T/C: 38.4%
[46]
  viability, T/C: 25.9%
[47]
  viability, T/C: 27.2%
[48]
  viability, T/C: 13.8%
[49]
  viability, T/C: 23.3%
[50]
  viability, T/C: 23.1%
[51]
  viability, T/C: 19.5%
[52]
  viability, T/C: 20%
[53]
  viability, T/C: 17.6%
[54]
  viability, T/C: 23.9%
[55]
  viability, T/C: 18.1%
[56]
  viability, T/C: 17.3%
[57]
  viability, T/C: 17.6%
[58]
  viability, T/C: 17.3%
[59]
  viability, T/C: 15.8%
[60]
  viability, T/C: 20.4%

## CC1COCCN1c1cc(C2(S(C)(=N)=O)CC2)nc(-c2ccnc3[nH]ccc23)n1 (stereo not drawn) + CNC(=O)c1ccc(Nc2nc(OC3CCCC3)c3c(-c4ccc5nc(C)oc5c4)c[nH]c3n2)c(OC)c1
Second compound 0.0316 µM
  IC50: > 10000 nM
Second compound 0.1 µM
  IC50: 8260 nM
Second compound 0.316 µM
  IC50: 2960 nM
Second compound 1 µM
  IC50: < 31.6 nM
Second compound 3.16 µM
  IC50: < 31.6 nM
Second compound 10 µM
  IC50: < 31.6 nM
[25]
  viability, T/C: 111%
[26]
  viability, T/C: 110%
[27]
  viability, T/C: 102%
[28]
  viability, T/C: 103%
[29]
  viability, T/C: 90.8%
[30]
  viability, T/C: 52.4%
[31]
  viability, T/C: 101%
[32]
  viability, T/C: 102%
[33]
  viability, T/C: 104%
[34]
  viability, T/C: 108%
[35]
  viability, T/C: 73.8%
[36]
  viability, T/C: 45.3%
[37]
  viability, T/C: 79.8%
[38]
  viability, T/C: 72.2%
[39]
  viability, T/C: 74.5%
[40]
  viability, T/C: 58.2%
[41]
  viability, T/C: 51.3%
[42]
  viability, T/C: 30.9%
[43]
  viability, T/C: 47.8%
[44]
  viability, T/C: 44.8%
[45]
  viability, T/C: 38.5%
[46]
  viability, T/C: 37.3%
[47]
  viability, T/C: 24.8%
[48]
  viability, T/C: 18.1%
[49]
  viability, T/C: 31.5%
[50]
  viability, T/C: 20.9%
[51]
  viability, T/C: 19.4%
[52]
  viability, T/C: 18.8%
[53]
  viability, T/C: 17.2%
[54]
  viability, T/C: 14.2%
[55]
  viability, T/C: 19.6%
[56]
  viability, T/C: 23%
[57]
  viability, T/C: 20.6%
[58]
  viability, T/C: 16.1%
[59]
  viability, T/C: 15.3%
[60]
  viability, T/C: 9.89%

## NC(=O)C(=Cn1cnc(-c2cc(C(F)(F)F)cc(C(F)(F)F)c2)n1)c1cncnc1 + CNC(=O)c1ccc(Nc2nc(OC3CCCC3)c3c(-c4ccc5nc(C)oc5c4)c[nH]c3n2)c(OC)c1
Second compound 0.0316 µM
  IC50: > 3000 nM
Second compound 0.1 µM
  IC50: 829 nM
Second compound 0.316 µM
  IC50: 142 nM
Second compound 1 µM
  IC50: 10.6 nM
Second compound 3.16 µM
  IC50: < 9.49 nM
Second compound 10 µM
  IC50: < 9.49 nM
[1]
  viability, T/C: 103%
[2]
  viability, T/C: 105%
[3]
  viability, T/C: 69%
[4]
  viability, T/C: 83%
Second compound 0.0316 µM, first compound 0.949 µM
  viability, T/C: 72.6%
Second compound 0.0316 µM, first compound 3 µM
  viability, T/C: 48.9%
[5]
  viability, T/C: 105%
[6]
  viability, T/C: 121%
[7]
  viability, T/C: 89.9%
[8]
  viability, T/C: 59.7%
Second compound 0.1 µM, first compound 0.949 µM
  viability, T/C: 58.3%
Second compound 0.1 µM, first compound 3 µM
  viability, T/C: 21.5%
[9]
  viability, T/C: 72.7%
[10]
  viability, T/C: 73.5%
[11]
  viability, T/C: 61.8%
[12]
  viability, T/C: 28%
Second compound 0.316 µM, first compound 0.949 µM
  viability, T/C: 23.1%
Second compound 0.316 µM, first compound 3 µM
  viability, T/C: 21.4%
[13]
  viability, T/C: 51.8%
[14]
  viability, T/C: 33.7%
[15]
  viability, T/C: 14.7%
[16]
  viability, T/C: 9.95%
Second compound 1 µM, first compound 0.949 µM
  viability, T/C: 2.29%
Second compound 1 µM, first compound 3 µM
  viability, T/C: 11.6%
[17]
  viability, T/C: 23.3%
[18]
  viability, T/C: 14.8%
[19]
  viability, T/C: 11.7%
[20]
  viability, T/C: 1.87%
Second compound 3.16 µM, first compound 0.949 µM
  viability, T/C: 1.14%
Second compound 3.16 µM, first compound 3 µM
  viability, T/C: 3.62%
[21]
  viability, T/C: 15.3%
[22]
  viability, T/C: 13.7%
[23]
  viability, T/C: 8.71%
[24]
  viability, T/C: 1.11%
Second compound 10 µM, first compound 0.949 µM
  viability, T/C: 2.71%
Second compound 10 µM, first compound 3 µM
  viability, T/C: 1.28%
